Data taken from PubChem BioAssay (NCI).
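Step 1: Grow cells in 96-well plates. Step 2: Expose to compound for 48 hours at 5 concentrations. Step 3: Interpolate endpoints linearly; if unreached, use highest concentration. GI50 marks 50% less growth. TGI: total growth inhibition.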

Assays:
Assay in all cases: DTP human tumour cell line panel, 48 h
A549 NSCLC = test system: A549 NSCLC
K-562 leukemia = test system: K-562 leukemia
SW-620 colon = test system: SW-620 colon
SNB-75 CNS = test system: SNB-75 CNS
RXF 393 renal = test system: RXF 393 renal
HT29 colon = test system: HT29 colon
EKVX NSCLC = test system: EKVX NSCLC
OVCAR-4 ovarian = test system: OVCAR-4 ovarian
IGROV1 ovarian = test system: IGROV1 ovarian
UACC-257 melanoma = test system: UACC-257 melanoma
NCI-H226 lung = test system: NCI-H226 lung
LOX IMVI melanoma = test system: LOX IMVI melanoma
MALME-3M melanoma = test system: MALME-3M melanoma
A498 renal = test system: A498 renal
OVCAR-8 ovarian = test system: OVCAR-8 ovarian
786-0 renal = test system: 786-0 renal
HCT-116 colon = test system: HCT-116 colon
CAKI-1 renal = test system: CAKI-1 renal
MCF7 breast = test system: MCF7 breast
OVCAR-5 ovarian = test system: OVCAR-5 ovarian
UACC-62 melanoma = test system: UACC-62 melanoma
SK-MEL-5 melanoma = test system: SK-MEL-5 melanoma
DU-145 prostate = test system: DU-145 prostate
OVCAR-3 ovarian = test system: OVCAR-3 ovarian
HOP-92 NSCLC = test system: HOP-92 NSCLC
CCRF-CEM leukemia = test system: CCRF-CEM leukemia
T-47D breast = test system: T-47D breast
NCI/ADR-RES ovarian = test system: NCI/ADR-RES ovarian
HS 578T breast = test system: HS 578T breast
MDA-N = test system: MDA-N
KM12 colon = test system: KM12 colon
COLO 205 colon = test system: COLO 205 colon
MOLT-4 leukemia = test system: MOLT-4 leukemia
BT-549 breast = test system: BT-549 breast
NCI-H522 lung = test system: NCI-H522 lung
SR leukemia = test system: SR leukemia
SN12C renal = test system: SN12C renal
ACHN renal = test system: ACHN renal
PC-3 prostate = test system: PC-3 prostate
SF-295 CNS = test system: SF-295 CNS
MDA-MB-435 = test system: MDA-MB-435
HCT-15 colon = test system: HCT-15 colon
HOP-62 NSCLC = test system: HOP-62 NSCLC
UO-31 renal = test system: UO-31 renal
HL-60(TB) leukemia = test system: HL-60(TB) leukemia
RPMI-8226 leukemia = test system: RPMI-8226 leukemia
U251 CNS = test system: U251 CNS
MDA-MB-231 breast = test system: MDA-MB-231 breast
SK-MEL-2 melanoma = test system: SK-MEL-2 melanoma
HCC-2998 colon = test system: HCC-2998 colon
NCI-H23 lung = test system: NCI-H23 lung
NCI-H460 lung = test system: NCI-H460 lung
SK-MEL-28 melanoma = test system: SK-MEL-28 melanoma
SF-539 CNS = test system: SF-539 CNS
TK-10 renal = test system: TK-10 renal
SK-OV-3 ovarian = test system: SK-OV-3 ovarian
SF-268 CNS = test system: SF-268 CNS
SNB-19 CNS = test system: SNB-19 CNS
M14 melanoma = test system: M14 melanoma

For Nc1nccc(NCC2(CO)CC(OCc3ccccc3)C2)n1 (centres undefined), the TGI (A549 NSCLC) was > 100 µM, the TGI (K-562 leukemia) was > 100 µM and the TGI (SW-620 colon) was > 100 µM. For the same compound, the TGI (SNB-75 CNS) was > 100 µM, the TGI (RXF 393 renal) was > 100 µM and the TGI (HT29 colon) was > 100 µM. The TGI (EKVX NSCLC) was > 100 µM, the TGI (OVCAR-4 ovarian) was > 100 µM and the TGI (IGROV1 ovarian) was > 100 µM. The TGI (UACC-257 melanoma) was > 100 µM, the TGI (NCI-H226 lung) was > 100 µM and the TGI (LOX IMVI melanoma) was > 100 µM. For the same compound, the TGI (MALME-3M melanoma) was > 100 µM, the TGI (A498 renal) was > 100 µM and the TGI (OVCAR-8 ovarian) was > 100 µM. For the same compound, the TGI (786-0 renal) was > 100 µM, the TGI (HCT-116 colon) was > 100 µM and the TGI (CAKI-1 renal) was > 100 µM. The TGI (MCF7 breast) was > 100 µM, the TGI (OVCAR-5 ovarian) was > 100 µM and the TGI (UACC-62 melanoma) was > 100 µM. For the same compound, the TGI (SK-MEL-5 melanoma) was > 100 µM, the TGI (DU-145 prostate) was > 100 µM and the TGI (OVCAR-3 ovarian) was > 100 µM. The TGI (HOP-92 NSCLC) was > 100 µM, the TGI (CCRF-CEM leukemia) was > 100 µM and the TGI (T-47D breast) was 36.2 µM. The TGI (NCI/ADR-RES ovarian) was > 100 µM, the TGI (HS 578T breast) was > 100 µM and the TGI (MDA-N) was > 100 µM. For the same compound, the TGI (KM12 colon) was > 100 µM, the TGI (COLO 205 colon) was > 100 µM and the TGI (MOLT-4 leukemia) was > 100 µM. For the same compound, the TGI (BT-549 breast) was > 100 µM, the TGI (NCI-H522 lung) was > 100 µM and the TGI (SR leukemia) was > 100 µM. The TGI (SN12C renal) was > 100 µM, the TGI (ACHN renal) was > 100 µM and the TGI (PC-3 prostate) was > 100 µM. The TGI (SF-295 CNS) was > 100 µM, the TGI (MDA-MB-435) was > 100 µM and the TGI (HCT-15 colon) was > 100 µM. The TGI (HOP-62 NSCLC) was > 100 µM, the TGI (UO-31 renal) was > 100 µM and the TGI (HL-60(TB) leukemia) was > 100 µM. For the same compound, the TGI (RPMI-8226 leukemia) was > 100 µM, the TGI (U251 CNS) was > 100 µM and the TGI (MDA-MB-231 breast) was > 100 µM. For the same compound, the TGI (SK-MEL-2 melanoma) was > 100 µM, the TGI (HCC-2998 colon) was > 100 µM and the TGI (NCI-H23 lung) was > 100 µM. The TGI (NCI-H460 lung) was > 100 µM, the TGI (SK-MEL-28 melanoma) was > 100 µM and the TGI (SF-539 CNS) was > 100 µM.
Compound Nc1nc(N)c2cc(Sc3ccc4ccccc4c3)ccc2n1 has a TGI (A549 NSCLC) of 12 µM, a TGI (K-562 leukemia) of 1.88 µM and a TGI (SW-620 colon) of 1.91 µM. It also gave a TGI (SNB-75 CNS) of 5.89 µM, a TGI (RXF 393 renal) of 4.62 µM and a TGI (HT29 colon) of 3.7 µM. It also gave a TGI (EKVX NSCLC) of 14.5 µM, a TGI (OVCAR-4 ovarian) of 5.26 µM and a GI50 (IGROV1 ovarian) of 0.817 µM. It also gave a TGI (IGROV1 ovarian) of 14.1 µM, a TGI (UACC-257 melanoma) of 4.61 µM and a TGI (NCI-H226 lung) of 18.1 µM. For the same compound, the TGI (LOX IMVI melanoma) was 1.93 µM, the TGI (TK-10 renal) was 6.33 µM and the GI50 (MALME-3M melanoma) was 1.29 µM. For the same compound, the TGI (MALME-3M melanoma) was 2.86 µM, the TGI (A498 renal) was 17.4 µM and the TGI (OVCAR-8 ovarian) was 2.84 µM. The TGI (786-0 renal) was 3.27 µM, the TGI (HCT-116 colon) was 1.69 µM and the TGI (CAKI-1 renal) was 15.7 µM. It also gave a TGI (MCF7 breast) of 2.86 µM, a TGI (SK-OV-3 ovarian) of 17.5 µM and a TGI (OVCAR-5 ovarian) of 10.4 µM. The TGI (UACC-62 melanoma) was 6.09 µM, the TGI (SK-MEL-5 melanoma) was 2.24 µM and the TGI (DU-145 prostate) was 6.01 µM. The TGI (OVCAR-3 ovarian) was 8.63 µM, the TGI (HOP-92 NSCLC) was 5.44 µM and the TGI (CCRF-CEM leukemia) was 4.83 µM. It also gave a TGI (T-47D breast) of 4.04 µM, a TGI (NCI/ADR-RES ovarian) of 4.35 µM and a TGI (HS 578T breast) of 9.17 µM. It also gave a TGI (MDA-N) of 4.66 µM, a TGI (KM12 colon) of 3.25 µM and a TGI (SF-268 CNS) of 4.19 µM. For the same compound, the TGI (COLO 205 colon) was 2.91 µM, the TGI (MOLT-4 leukemia) was 5.51 µM and the TGI (BT-549 breast) was 9 µM. For the same compound, the TGI (NCI-H522 lung) was 3.36 µM, the GI50 (SR leukemia) was 0.805 µM and the TGI (SR leukemia) was 5 µM. For the same compound, the TGI (SN12C renal) was 8.93 µM, the TGI (ACHN renal) was 5.15 µM and the TGI (PC-3 prostate) was 6.12 µM. For the same compound, the TGI (SF-295 CNS) was 4.91 µM, the TGI (MDA-MB-435) was 2.54 µM and the TGI (HCT-15 colon) was 2.55 µM. For the same compound, the TGI (HOP-62 NSCLC) was 4.35 µM, the TGI (UO-31 renal) was 7.69 µM and the TGI (SNB-19 CNS) was 7.61 µM. The TGI (HL-60(TB) leukemia) was 2.77 µM, the TGI (RPMI-8226 leukemia) was 4.72 µM and the TGI (U251 CNS) was 3.38 µM. It also gave a TGI (MDA-MB-231 breast) of 5.28 µM, a GI50 (SK-MEL-2 melanoma) of 1.68 µM and a TGI (SK-MEL-2 melanoma) of 3.42 µM. The GI50 (HCC-2998 colon) was 0.878 µM, the TGI (HCC-2998 colon) was 2.13 µM and the TGI (NCI-H23 lung) was 10.2 µM. The TGI (NCI-H460 lung) was 2.26 µM, the TGI (M14 melanoma) was 2.88 µM and the GI50 (SK-MEL-28 melanoma) was 1.54 µM. For the same compound, the TGI (SK-MEL-28 melanoma) was 2.9 µM and the TGI (SF-539 CNS) was 5.04 µM.
